Test results: article PMC5799184, “Gs- versus Golf-dependent functional selectivity mediated by the dopamine D1 receptor” (Nature Communications, 2018)

Experiments:
[1] = target: T1, D1R-Rluc with β-arrestin-2-Venus (Homo sapiens, UniProt P21728); format: cell-based; settings: agonist; GRK2 co-transfected; HEK-293T cells
T1 construct: gene DRD1; D1R with N-terminal signal peptide and Flag or Myc tag, fused to Renilla luciferase 8; GRK2 co-transfected; HEK-293T cells; with Beta-arrestin-2

D3R, Go activation = target: T2, D3R, Go activation (Homo sapiens, UniProt P35462); assay: BRET Go activation (GαoA-Rluc / γ2-GFP10); format: cell-based; settings: partial agonist; HEK-293T cells
T2 construct: gene DRD3; N-terminal signal peptide and Flag or Myc tag; co-transfected GαoA91-Rluc, Gγ2-GFP10 and untagged Gβ2; HEK-293T cells

[2] = target: T3, D2R (D2SR), Go activation (Homo sapiens, UniProt P14416); settings: partial agonist; HEK-293T cells
T3 construct: gene DRD2

[3] = target: T4, D1R-Rluc with Golf-Venus (D1L_GolfV) (Homo sapiens, UniProt P21728); assay: BRET receptor-Gα engagement, D1R-Rluc / Golf-Venus; format: cell-based; settings: antagonist against […] SKF81297; HEK-293T cells
T4 construct: gene DRD1; D1R with N-terminal signal peptide and Flag or Myc tag, fused to Renilla luciferase 8; Gαolf with inserted Venus; G protein chaperone Ric8B co-transfected, untagged Gβ2 and Gγ7 available; HEK-293T cells
T4 sequence (P21728 whole entry, the tested form may be a part): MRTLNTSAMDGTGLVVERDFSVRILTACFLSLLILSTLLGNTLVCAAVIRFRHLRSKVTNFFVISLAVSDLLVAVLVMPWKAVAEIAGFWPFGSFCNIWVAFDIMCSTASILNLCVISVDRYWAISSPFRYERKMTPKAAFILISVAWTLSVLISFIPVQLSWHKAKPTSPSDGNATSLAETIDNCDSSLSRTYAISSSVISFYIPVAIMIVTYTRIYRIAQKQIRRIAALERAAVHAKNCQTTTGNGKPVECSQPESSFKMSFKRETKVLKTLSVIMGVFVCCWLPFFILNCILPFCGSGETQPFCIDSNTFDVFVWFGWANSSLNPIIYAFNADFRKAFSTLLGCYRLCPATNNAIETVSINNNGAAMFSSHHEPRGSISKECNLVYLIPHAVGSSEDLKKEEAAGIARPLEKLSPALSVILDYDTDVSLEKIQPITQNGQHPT
T4 sequence (P38405 2-381 partner): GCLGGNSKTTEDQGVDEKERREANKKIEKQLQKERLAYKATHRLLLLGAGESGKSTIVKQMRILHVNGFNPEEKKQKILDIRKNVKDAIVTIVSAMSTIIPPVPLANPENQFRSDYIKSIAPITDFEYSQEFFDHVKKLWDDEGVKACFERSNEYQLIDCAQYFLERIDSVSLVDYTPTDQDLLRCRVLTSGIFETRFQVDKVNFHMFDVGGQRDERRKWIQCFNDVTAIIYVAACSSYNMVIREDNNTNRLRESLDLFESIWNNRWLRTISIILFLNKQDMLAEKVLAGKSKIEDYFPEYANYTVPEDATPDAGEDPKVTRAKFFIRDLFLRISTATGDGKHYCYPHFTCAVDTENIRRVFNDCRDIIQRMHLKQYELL

T1 sequence (P21728 whole entry, the tested form may be a part): as the sequence (P21728 whole entry, the tested form may be a part) above
T1 sequence (P32121 whole entry partner, the tested form may be a part): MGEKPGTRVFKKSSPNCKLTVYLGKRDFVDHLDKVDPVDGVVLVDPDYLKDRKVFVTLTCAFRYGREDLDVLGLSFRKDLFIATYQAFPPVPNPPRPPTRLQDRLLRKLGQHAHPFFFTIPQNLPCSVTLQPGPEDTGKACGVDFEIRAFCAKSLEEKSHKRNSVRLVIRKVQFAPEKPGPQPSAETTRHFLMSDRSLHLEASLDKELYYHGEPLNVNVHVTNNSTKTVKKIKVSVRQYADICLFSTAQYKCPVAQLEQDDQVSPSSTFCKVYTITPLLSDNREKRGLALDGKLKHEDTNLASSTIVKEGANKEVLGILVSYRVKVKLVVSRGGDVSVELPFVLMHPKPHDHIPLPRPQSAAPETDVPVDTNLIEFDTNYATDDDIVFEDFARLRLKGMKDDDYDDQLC
T3 sequence (P14416 1-414 isoform P14416-2): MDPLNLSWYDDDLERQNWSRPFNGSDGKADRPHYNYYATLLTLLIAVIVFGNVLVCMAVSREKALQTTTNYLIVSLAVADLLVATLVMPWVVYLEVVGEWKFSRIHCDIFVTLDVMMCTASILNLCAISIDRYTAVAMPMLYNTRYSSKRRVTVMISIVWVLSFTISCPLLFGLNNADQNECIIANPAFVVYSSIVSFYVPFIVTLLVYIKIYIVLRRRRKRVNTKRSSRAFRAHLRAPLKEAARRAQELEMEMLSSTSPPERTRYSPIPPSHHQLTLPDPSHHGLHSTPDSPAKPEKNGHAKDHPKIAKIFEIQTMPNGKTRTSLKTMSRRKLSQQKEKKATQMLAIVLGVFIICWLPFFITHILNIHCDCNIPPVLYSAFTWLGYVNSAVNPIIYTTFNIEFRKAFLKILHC
T3 sequence (P09471 2-354 partner): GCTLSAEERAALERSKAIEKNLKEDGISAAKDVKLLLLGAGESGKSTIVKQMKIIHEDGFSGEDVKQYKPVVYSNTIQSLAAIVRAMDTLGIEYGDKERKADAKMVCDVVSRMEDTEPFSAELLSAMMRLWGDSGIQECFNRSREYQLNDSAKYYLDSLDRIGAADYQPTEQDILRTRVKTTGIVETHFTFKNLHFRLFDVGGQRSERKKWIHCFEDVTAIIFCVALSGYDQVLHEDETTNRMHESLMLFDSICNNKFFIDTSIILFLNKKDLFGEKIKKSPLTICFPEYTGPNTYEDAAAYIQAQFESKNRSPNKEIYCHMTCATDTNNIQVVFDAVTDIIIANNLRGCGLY
T2 sequence (P35462 whole entry): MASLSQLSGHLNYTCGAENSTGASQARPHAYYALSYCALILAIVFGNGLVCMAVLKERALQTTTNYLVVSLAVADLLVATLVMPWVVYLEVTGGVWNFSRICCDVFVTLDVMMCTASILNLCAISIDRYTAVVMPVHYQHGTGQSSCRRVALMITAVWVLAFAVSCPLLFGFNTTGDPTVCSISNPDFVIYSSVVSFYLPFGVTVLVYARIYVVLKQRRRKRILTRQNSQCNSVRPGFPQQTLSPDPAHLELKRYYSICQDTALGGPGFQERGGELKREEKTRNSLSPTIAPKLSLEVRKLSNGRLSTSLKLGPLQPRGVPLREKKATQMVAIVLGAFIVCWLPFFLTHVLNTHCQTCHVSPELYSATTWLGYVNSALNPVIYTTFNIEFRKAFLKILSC
T2 sequence (P09471 2-354 partner): as the sequence (P09471 2-354 partner) above

For `NC[C@@H]1O[C@H](C23CC4CC(CC(C4)C2)C3)Cc2c1ccc(O)c2O` [A77636], the EC50 [1] was “A77636 and SKF82958 maintained their high potencies and efficacies in the β-arrestin-2 recruitment assay”.

For `Oc1cc2c(cc1O)C1c3ccccc3CNC1CC2` (centres unmarked) [DHX], the EC50 (D3R, Go activation) was “less efficacious at D2R and D3R-mediated Go activation than at D1R-mediated Gs activation”, the EC50 [2] was “less efficacious at D2R and D3R-mediated Go activation than at D1R-mediated Gs activation” and the EC50 [1] was “DHX and NPA behaved similarly to Gs engagement in terms of efficacy and potency”.

In the case of `CCCN1CCc2cccc3c2[C@H]1Cc1ccc(O)c(O)c1-3` [NPA], the EC50 [1] is reported as “DHX and NPA behaved similarly to Gs engagement in terms of efficacy and potency”.

`C=CCN1CCc2c(cc(O)c(O)c2Cl)C(c2ccccc2)C1` (centres unmarked) [SKF82958] was tested, and the EC50 [1] was “A77636 and SKF82958 maintained their high potencies and efficacies in the β-arrestin-2 recruitment assay”.

In the case of `CN1CCc2cc(Cl)c(O)cc2[C@@H](c2ccccc2)C1` [SCH23390], the IC50 [3] is reported as “Dose-response curves of BRET between D1R-Rluc and Golf-Venus (same color scheme)”.

`Oc1cc2c(cc1O)C(c1ccccc1)CNCC2` (centres unmarked) [SKF38393] was tested, and the EC50 [1] was “SKF81297 and SKF38393 showed reduced and minimal β-arrestin-2 recruitment, respectively”.
